The structures appear in SMILES notation. pIC50: −log10 of the molar value.

Assay [1] in a line: Inhibition of RANKL-induced osteoclastogenesis in mouse RAW264 cells assessed as reduction in multinucleated TRAP positive osteoclasts incubated for 4 days by TRAP staining based light microscopic analysis. The assay is classed as functional, cell-based. As to conditions: raw264.7.
The subject of another assay is SW-620. The assay is described as follows: Cytotoxicity against human SW620 cells assessed as inhibition of cell growth incubated for 24 hrs by MTT assay. The assay is classed as functional, cell-based. To be noted: SW-620, 24 h.
A further assay has as its system Candida albicans. The assay is described as follows: Antifungal activity against Candida albicans ATCC 10231 assessed as inhibition of fungal growth incubated for 48 hrs by serial dilution based spectrophotometric analysis. The assay is classed as functional, organism-based. As to conditions: ATCC 10231, 48 h.
Another assay concerns Staphylococcus aureus. The assay is described as follows: Antibacterial activity against Staphylococcus aureus ATCC 25923 assessed as inhibition of bacterial growth incubated for 24 hrs by serial dilution based spectrophotometric analysis. The assay is classed as functional, organism-based. To be noted: ATCC 25923, 24 h.
A further assay has as its system NCI-H460. The assay is described as follows: Cytotoxicity against human NCI-H460 cells assessed as inhibition of cell growth incubated for 24 hrs by MTT assay. The assay is classed as functional, cell-based. To be noted: NCI-H460, 24 h. (In general: Tetrazolium dyes change colour on reduction, which living cells bring about.)
For another assay, the system named is Escherichia coli. The assay is described as follows: Antibacterial activity against Escherichia coli ATCC 11775 assessed as inhibition of bacterial growth incubated for 24 hrs by serial dilution based spectrophotometric analysis. It counts as functional, organism-based. To be noted: ATCC 11775, 24 h.

Regarding `CC(C)[C@@]1(O)CC[C@@]2(C)C[C@](O)([C@@H]3CC[C@@H]4[C@]3(C)CC[C@H]3OC(C)(C)[C@H](O)C(=O)[C@@H](O)[C@]43C)CC[C@H]21`, the pIC50 (commonly the negative decadic logarithm of the IC50, by convention in mol/L) in assay [1] is 4.89.

With `COC[C@H]1O[C@H](O[C@@]2(C)CC[C@@H](C(C)(C)O)O[C@@H]2CC[C@H](C)[C@@]2(C)CCC3=C2CC[C@@H]2OC(C)(C)[C@H](O[C@H]4O[C@H](COC)[C@@H](O)[C@H](O)[C@H]4NC(C)=O)[C@@H](O)C[C@@]32C)[C@H](NC(C)=O)[C@@H](O)[C@@H]1O`, the pIC50 in the assay with SW-620, with Candida albicans, in the assay on Staphylococcus aureus, in the assay on NCI-H460 and with Escherichia coli was < 4.52 in each case.

Take `COC[C@H]1O[C@H](O[C@@]2(C)CC[C@@H](C(C)(C)O)O[C@@H]2CC[C@H](C)[C@@]2(C)CC=C3[C@@H]2CC[C@@H]2OC(C)(C)[C@H](O[C@H]4O[C@H](COC)[C@@H](O)[C@H](O)[C@H]4NC(C)=O)[C@@H](O)C[C@@]32C)[C@H](NC(C)=O)[C@@H](O)[C@@H]1O`: the pIC50 in the assay on SW-620, in the assay with Candida albicans, with Staphylococcus aureus, with NCI-H460 and in the assay on Escherichia coli was < 4.52 in each case.

For `CC(C)[C@@]1(O)CC[C@@]2(C)C[C@](O)([C@@H]3CC[C@@H]4[C@]3(C)CC[C@H]3OC(C)(C)[C@H](O)C(=O)[C@H](O)[C@]43C)CC[C@H]21`, the negative-log IC50 (pIC50) in assay [1] was 4.48.

Take `COC[C@H]1O[C@H](O[C@@H]2CC[C@@]3(C)C4=CC[C@](C)([C@@H](C)CC[C@H]5O[C@H](C(C)(C)O)CC[C@]5(C)O)[C@H]4CC[C@@H]3OC2(C)C)[C@H](NC(C)=O)[C@@H](O)[C@@H]1O`: the pIC50 with SW-620, in the assay on Candida albicans, in the assay with Staphylococcus aureus, in the assay with NCI-H460 and in the assay on Escherichia coli was < 4.52 each time.

As for `COC[C@H]1O[C@H](O[C@@H]2CC[C@@]3(C)C4=CC[C@](C)([C@@H](C)CC[C@H]5O[C@H](C(C)(C)O)CC[C@]5(C)O[C@H]5O[C@H](COC)[C@@H](O)[C@H](O)[C@H]5NC(C)=O)[C@H]4CC[C@@H]3OC2(C)C)[C@H](NC(C)=O)[C@@H](O)[C@@H]1O`, the pIC50 in the assay with SW-620, with Candida albicans, in the assay with Staphylococcus aureus, in the assay with NCI-H460 and in the assay on Escherichia coli was < 4.52 in each case.

On to `COC[C@H]1O[C@H](O[C@@H]2[C@@H](O)C[C@@]3(C)C4=CC[C@](C)([C@@H](C)CC[C@H]5O[C@H](C(C)(C)O)CC[C@]5(C)O)[C@H]4CC[C@@H]3OC2(C)C)[C@H](NC(C)=O)[C@@H](O)[C@@H]1O`, for which the pIC50 in the assay with SW-620, in the assay with Candida albicans, in the assay with Staphylococcus aureus, in the assay on NCI-H460 and in the assay on Escherichia coli was < 4.52 throughout.

Regarding `CC(=O)N[C@H]1[C@@H](O[C@@H]2CC[C@@]3(C)C4=CC[C@](C)([C@@H](C)CC[C@H]5O[C@H](C(C)(C)O)CC[C@]5(C)O)[C@H]4CC[C@@H]3OC2(C)C)O[C@H](CO)[C@@H](O)[C@@H]1O`, the pIC50 in the assay with SW-620, in the assay on Candida albicans, with Staphylococcus aureus, with NCI-H460 and in the assay with Escherichia coli was < 4.52 in each case.

On to `COC[C@H]1O[C@H](O[C@@H]2CC[C@@]3(C)C4=C(CC[C@@H]3OC2(C)C)[C@@](C)([C@@H](C)CC[C@H]2O[C@H](C(C)(C)O)CC[C@]2(C)O[C@H]2O[C@H](COC)[C@@H](O)[C@H](O)[C@H]2NC(C)=O)CC4)[C@H](NC(C)=O)[C@@H](O)[C@@H]1O`, for which the pIC50 in the assay with SW-620, in the assay on Candida albicans, with Staphylococcus aureus, with NCI-H460 and with Escherichia coli was < 4.52 in each case.

On to `COC[C@H]1O[C@H](O[C@@]2(C)CC[C@@H](C(C)(C)O)O[C@@H]2CC[C@H](C)[C@@]2(C)CC=C3[C@@H]2CC[C@@H]2OC(C)(C)[C@H](O[C@H]4O[C@H](CO)[C@@H](O)[C@H](O)[C@H]4NC(C)=O)CC[C@@]32C)[C@H](NC(C)=O)[C@@H](O)[C@@H]1O`, for which the pIC50 in the assay with SW-620, with Candida albicans, in the assay with Staphylococcus aureus, with NCI-H460 and in the assay with Escherichia coli was < 4.52 each time.
